Test results from ChEMBL document CHEMBL3885861, “Open TG-GATES”.

Species on record: Rattus norvegicus
Experiment: Open TG-GATES - Regimen: Single
Format: toxicity, organism-based, Sprague-Dawley
Set-up: regimen Single, gender Male, age 6 weeks
Conditions: in vivo, po, route gavage; for TC / TG / TP / gamma-GTP / A/G / ALP / ALT / AST / BUN / CRE / Ca / Cl / GLC / IP / K / LDH / Na / PL / RALB: tissue Plasma; for APTT / Bas / Eos / Fbg / Hb / Ht / Lym / MCH / MCHC / MCV / Mono / Neu / PT / Plat / RBC / Ret / WBC: tissue Blood; for KIDNEY_L / KIDNEY_R / KIDNEY_TOTAL: tissue Kidney; for LIVER: tissue Liver
[1] = 300 mg/kg, 24 h, dose level Low
[2] = 1000 mg/kg, 3 h, dose level Middle
[3] = 1000 mg/kg, 6 h, dose level Middle
[4] = 1000 mg/kg, 9 h, dose level Middle
[5] = 1000 mg/kg, 24 h, dose level Middle

## O=C(O)c1ccccc1Nc1ccccc1 [FENAMIC ACID]
[1]
  TC: 74.8 mg/dL
  TG: 88 mg/dL
  TP: 5.6 g/dL
  gamma-GTP: 1 IU/L
[2]
  TERMINAL_BW: 208.9 g
  APTT: 17.2 s
  Bas: 0.8%
  Eos: 0.6%
  Fbg: 253.8 mg/dL
  Hb: 13.4 g/dL
  Ht: 40.2%
  Lym: 71.4%
  MCH: 20.5 pg
  MCHC: 33.5%
  MCV: 61.1 fL
  Mono: 2.8%
  Neu: 24.4%
  PT: 14.1 s
  Plat: 115 x10_4/uL
  RBC: 657.4 x10_4/ul
  Ret: 8%
  WBC: 93.3 x10_2/uL
  KIDNEY_L: 0.9 g
  KIDNEY_R: 0.9 g
  KIDNEY_TOTAL: 1.8 g
  LIVER: 7.8 g
  A/G: 0.9
  ALP: 1837.8 IU/L
  ALT: 38.4 IU/L
  AST: 75.4 IU/L
  BUN: 9.6 mg/dL
  CRE: 0.1 mg/dL
  Ca: 11 mg/dL
  Cl: 105.2 meq/L
  GLC: 169.2 mg/dL
  IP: 10.3 mg/dL
  K: 4 meq/L
  LDH: 71.8 IU/L
  Na: 144 meq/L
  PL: 96.4 mg/dL
  RALB: 2.5 g/dL
  TC: 49 mg/dL
  TG: 37 mg/dL
  TP: 5.4 g/dL
  gamma-GTP: 1 IU/L
[3]
  TERMINAL_BW: 203 g
  APTT: 17 s
  Bas: 0.8%
  Eos: 1%
  Fbg: 286.4 mg/dL
  Hb: 13.7 g/dL
  Ht: 40.4%
  Lym: 66.6%
  MCH: 21.2 pg
  MCHC: 34%
  MCV: 62.4 fL
  Mono: 3.2%
  Neu: 28.8%
  PT: 14.4 s
  Plat: 112.9 x10_4/uL
  RBC: 646.6 x10_4/ul
  Ret: 7.7%
  WBC: 98.8 x10_2/uL
  KIDNEY_L: 0.9 g
  KIDNEY_R: 0.9 g
  KIDNEY_TOTAL: 1.8 g
  LIVER: 7.4 g
  A/G: 0.9
  ALP: 1734.6 IU/L
  ALT: 37 IU/L
  AST: 77.6 IU/L
  BUN: 11.4 mg/dL
  CRE: 0.1 mg/dL
  Ca: 11.1 mg/dL
  Cl: 107 meq/L
  GLC: 128.4 mg/dL
  IP: 10.8 mg/dL
  K: 3.9 meq/L
  LDH: 73.4 IU/L
  Na: 146.2 meq/L
  PL: 105.6 mg/dL
  RALB: 2.7 g/dL
  TC: 53 mg/dL
  TG: 37 mg/dL
  TP: 5.8 g/dL
  gamma-GTP: 1.2 IU/L
[4]
  TERMINAL_BW: 207.8 g
  APTT: 14.8 s
  Bas: 0.4%
  Eos: 0.8%
  Fbg: 281 mg/dL
  Hb: 13.9 g/dL
  Ht: 41.1%
  Lym: 61.8%
  MCH: 21.2 pg
  MCHC: 33.8%
  MCV: 62.8 fL
  Mono: 3%
  Neu: 33.8%
  PT: 14.6 s
  Plat: 111.6 x10_4/uL
  RBC: 655.6 x10_4/ul
  Ret: 8.2%
  WBC: 80.5 x10_2/uL
  KIDNEY_L: 1 g
  KIDNEY_R: 0.9 g
  KIDNEY_TOTAL: 1.9 g
  LIVER: 7.4 g
  A/G: 0.9
  ALP: 1965.8 IU/L
  ALT: 44.6 IU/L
  AST: 75.4 IU/L
  BUN: 13.8 mg/dL
  CRE: 0.1 mg/dL
  Ca: 11.1 mg/dL
  Cl: 107.8 meq/L
  GLC: 142 mg/dL
  IP: 10.9 mg/dL
  K: 4 meq/L
  LDH: 68.6 IU/L
  Na: 146.2 meq/L
  PL: 102.8 mg/dL
  RALB: 2.6 g/dL
  TC: 45.8 mg/dL
  TG: 29 mg/dL
  TP: 5.7 g/dL
  gamma-GTP: 1 IU/L
[5]
  TERMINAL_BW: 210.6 g
  APTT: 14.3 s
  Bas: 0.8%
  Eos: 0.8%
  Fbg: 388 mg/dL
  Hb: 13.5 g/dL
  Ht: 40.1%
  Lym: 70.6%
  MCH: 21.3 pg
  MCHC: 33.8%
  MCV: 62.9 fL
  Mono: 3%
  Neu: 24.8%
  PT: 15 s
  Plat: 114.1 x10_4/uL
  RBC: 637.8 x10_4/ul
  Ret: 7.1%
  WBC: 120.4 x10_2/uL
  KIDNEY_L: 1 g
  KIDNEY_R: 1 g
  KIDNEY_TOTAL: 2 g
  LIVER: 8.4 g
  A/G: 0.9
  ALP: 2284.2 IU/L
  ALT: 41.2 IU/L
  AST: 66 IU/L
  BUN: 16.4 mg/dL
  CRE: 0.2 mg/dL
  Ca: 11.4 mg/dL
  Cl: 106.2 meq/L
  GLC: 164.6 mg/dL
  IP: 8.5 mg/dL
  K: 3.7 meq/L
  LDH: 142 IU/L
  Na: 145.4 meq/L
  PL: 104.6 mg/dL
  RALB: 2.6 g/dL
  TC: 47.4 mg/dL
  TG: 46.2 mg/dL
